Experiments:
[1] = target: T1, human DAT (Homo sapiens, UniProt Q01959); test: DAT uptake inhibition assay in HEK293 cells ([3H]MPP+); assay type: cell-based
T1 construct: expressed in transfected cells
Description: Human embryonic kidney 293 (HEK293) cells stably expressing the human isoforms of either DAT or SERT were maintained in Dulbecco’s Modified Eagle Medium (DMEM), supplemented with 10% fetal calf serum at a subconfluent state in humidified atmosphere (5% CO2, 37 °C).
Uptake inhibition assays were performed as described earlier. Briefly, HEK293 cells stably expressing human SERT or DAT were seeded onto poly- D-lysine (PDL) coated 96-well plates (40,000 cells well^−1) the day before an experiment. Prior to the uptake inhibition assay, DMEM was replaced with Krebs-HEPES buffer (KHB, 25 mM HEPES, 120 mM NaCl, 5 mM KCl, 1.2 mM CaCl2, 1.2 mM MgSO4, and 5 mM D-glucose, pH 7.3) and the cells were preincubated with test drugs for 5 min at room temperature. Uptake assays were initiated by adding 20 nM [^3H]MPP^+ to DAT cells or 100 nM [^3H]5-HT to SERT cells. After 180 s (DAT) or 60 s (SERT), the tritiated substrate was removed by aspiration. Cells were washed once with ice-cold KHB, then lysed in 1% sodium dodecyl sulfate (SDS) and subjected to liquid scintillation counting to quantify tritium accumulated in each sample. Non-specific uptake was determined in the presence of mazindol (1 µM) for DAT or paroxetine (1 µM) for SERT and subtracted throughout.

[2] = system: extracellular DA; parameters: method as in PMID 23178523; settings: racemic; cited from earlier work

T1 sequence (Q01959 whole entry): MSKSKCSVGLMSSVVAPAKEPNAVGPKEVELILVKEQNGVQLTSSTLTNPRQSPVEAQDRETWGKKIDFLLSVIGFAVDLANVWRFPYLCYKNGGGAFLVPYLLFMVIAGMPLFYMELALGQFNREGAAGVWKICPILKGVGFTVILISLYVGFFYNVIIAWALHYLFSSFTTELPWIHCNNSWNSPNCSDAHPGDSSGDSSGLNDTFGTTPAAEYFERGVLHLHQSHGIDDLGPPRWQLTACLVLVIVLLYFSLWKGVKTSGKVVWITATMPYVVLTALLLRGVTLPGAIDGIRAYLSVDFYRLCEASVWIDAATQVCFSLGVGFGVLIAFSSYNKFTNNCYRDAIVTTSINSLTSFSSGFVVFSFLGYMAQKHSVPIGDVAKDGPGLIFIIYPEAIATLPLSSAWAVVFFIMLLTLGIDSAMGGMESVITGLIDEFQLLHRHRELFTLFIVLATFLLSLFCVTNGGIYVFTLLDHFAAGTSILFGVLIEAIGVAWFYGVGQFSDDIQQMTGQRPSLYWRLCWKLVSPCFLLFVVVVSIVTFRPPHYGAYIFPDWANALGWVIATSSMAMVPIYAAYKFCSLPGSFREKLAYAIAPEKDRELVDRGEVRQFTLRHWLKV

In the case of CNC(C)C(=O)c1ccc(C(F)(F)F)cc1 (centres unmarked) [4-TFMMC, 4-trifluoromethyl-N-methylcathinone], the IC50 [1] is given as > 100 µM and the “extracellular DA” value [2] is given as “did not affect extracellular DA”.

Source: PMC9645344, “Serotonin-releasing agents with reduced off-target effects” (Molecular Psychiatry, 2022)
